US7579365B2 (ZIOPHRAM Oncology, Inc., priority 1998, dated 2009)
In brackets after ≈: the same amount, converted by molar mass. Entries after “also recorded” stand apart in the source; their conditions may differ. Where two headings read alike, the source gives them in different places.

Assays:
KB cell line = experiment: XTT proliferation test/cytotoxicity test, KB cell line; assay type: cell-based; details: KB tumor cells; for EC50: Homo sapiens, KB, read-out: XTT EC50 KB
Experimental: (§1) In this test system, the effect of substances on the proliferation behavior of tumor cell lines is investigated. In the course of this, the cytotoxic potential of these substances is determined. The test method is described in Scudiero et al. 1988, Cancer Res. 48, 4827.
(§2) The following tumor cell lines were employed in the investigations:
(§3) The KB cell line an epidermal carcinoma of the oral cavity,
(§4) the L1210 cell line a lymphatic leukemia of the mouse, the LNCAP cell line a prostate carcinoma and the SK-OV-3 cell line an ovarian carcinoma.

L1210 cell line = experiment: XTT proliferation test/cytotoxicity test, L1210 cell line; assay type: cell-based, mouse; details: for EC50: Mus musculus, L1210, L1210 tumor cells, read-out: XTT EC50 L1210; for XTT EC50 L1210: L1210 tumor cells
Experimental: as §1, §2, §3, §4

LNCAP cell line = experiment: XTT proliferation test/cytotoxicity test, LNCAP cell line; assay type: cell-based; details: LNCaP tumor cells; for EC50: Homo sapiens, read-out: XTT EC50 LNCaP
Experimental: as §1, §2, §3, §4

SK-OV-3 cell line = experiment: XTT proliferation test/cytotoxicity test, SK-OV-3 cell line; assay type: cell-based; details: for EC50: Homo sapiens, SK-OV-3, SK-OV-3 tumor cells, read-out: XTT EC50 SK-OV-3
Experimental: as §1, §2, §3, §4

KB [1] = experiment: Hollow fiber assay on the nude mouse, KB; assay type: in vivo
Text: (§5) In the hollow fiber assay, both compounds were almost equally strongly active, while on L 1210 D-24851 was markedly more strongly active after oral and intraperitoneal administration than D-24241.

L1210 [2] = experiment: Hollow fiber assay on the nude mouse, L1210; assay type: in vivo
Text: as §5

MCF-7 = experiment: Hollow fiber assay on the nude mouse, MCF-7; assay type: in vivo
Text: as §5

L1210 [3] = experiment: L1210 leukemia model in vivo (% ILS, survival time); parameters: species or system mouse; details: for Antitumor action on L 1210 (mouse): oral and intraperitoneal administration
Text: as §5

KB [4] = experiment: KB test on the nude mouse (% WHI); assay type: in vivo; details: for % WHI: KB
SK-OV-3 = experiment: In vivo % WHI printed in the SK-OV-3 column of Table 3
Dunning tumor = Dunning tumor in the rat; assay type: in vivo; details: repeated oral administration, 7×100 mg/kg and 7×147 mg/kg p.o.
DNA = DNA fragmentation; details: after administration
Hematopoiesis test = assay type: in vivo; details: intraperitoneal administration; listed as D-24851
[5] = in vivo; for Tox. i.p.: ip
L1210 [6] = experiment: L1210 leukemia model in vivo (% ILS, survival time); details: Mus musculus, L1210, iv

Compound: O=C(Nc1ccncc1)C(=O)c1cn(Cc2ccc(Cl)cc2)c2ccccc12 [Example 13, N-(Pyridin-4-yl)-[1-(4-chlorobenzyl)indol-3-yl]glyoxylamide]
- EC50 (KB cell line): ~0.017 µg/mL (≈ 0.0436 µM)
- EC50 (L1210 cell line): ~0.017 µg/mL (≈ 0.0436 µM)
- EC50 (LNCAP cell line; LNCaP): ~0.03 µg/mL (≈ 0.077 µM)
- EC50 (SK-OV-3 cell line): ~0.03 µg/mL (≈ 0.077 µM)
- Hollow fiber subcutaneous % INH (KB [1]; 4 × 46 mg/kg ip): 44%
- Hollow fiber intraperitoneal % INH (KB [1]; 4 × 147 mg/kg ip): 12%
- Hollow fiber subcutaneous % INH (KB [1]; 4 × 147 mg/kg ip): 35%
- Hollow fiber intraperitoneal % INH (L1210 [2]; 4 × 46 mg/kg ip): 56%
- Hollow fiber subcutaneous % INH (L1210 [2]; 4 × 46 mg/kg ip): no action
- Hollow fiber intraperitoneal % INH (L1210 [2]; 4 × 147 mg/kg ip): 60%
- Hollow fiber subcutaneous % INH (L1210 [2]; 4 × 147 mg/kg ip): 67%
- Hollow fiber intraperitoneal % INH (MCF-7; 4 × 46 mg/kg ip): 38%
- Hollow fiber subcutaneous % INH (MCF-7; 4 × 46 mg/kg ip): 47%
- Hollow fiber intraperitoneal % INH (MCF-7; 4 × 147 mg/kg ip): 68%
- Hollow fiber subcutaneous % INH (MCF-7; 4 × 147 mg/kg ip): 68%
- ILS at 464 mg/kg (L1210 [3]; Mus musculus, L1210, ip, 1 × 464 mg/kg ip): 18%
- ILS at 681 mg/kg (L1210 [3]; Mus musculus, L1210, ip, 1 × 681 mg/kg ip): 0%
- ILS at 147 mg/kg (L1210 [3]; Mus musculus, L1210, ip, 4 × 147 mg/kg ip): 94%
- ILS at 215 mg/kg (L1210 [3]; Mus musculus, L1210, ip, 4 × 215 mg/kg ip): 13%
- ILS at 100 mg/kg (L1210 [3]; Mus musculus, L1210, ip, 7 × 100 mg/kg ip): 35%
- ILS at 147 mg/kg (L1210 [3]; Mus musculus, L1210, ip, 7 × 147 mg/kg ip): 59%
- ILS at 681 mg/kg (L1210 [3]; Mus musculus, L1210, po, 1 × 681 mg/kg po): 22%
- ILS at 215 mg/kg (L1210 [3]; Mus musculus, L1210, po, 4 × 215 mg/kg po): 31%
- ILS at 100 mg/kg (L1210 [3]; Mus musculus, L1210, po, 7 × 100 mg/kg po): 63%
- ILS at 147 mg/kg (L1210 [3]; Mus musculus, L1210, po, 7 × 147 mg/kg po): 75%
- Prolongation of the survival time, L1210 (L1210 [3]; intraperitoneal or oral administration, 100 and 147 mg/kg multiple dose): distinct dose-dependent prolongation of the survival time
- Antitumor action on L 1210 (mouse) (L1210 [3]): strong dose-dependent antitumor action
- Antitumor action in the KB test on the nude mouse (KB [4]): antitumor action
- % WHI (SK-OV-3; 2 × 215 mg/kg po): 18%
- % WHI (SK-OV-3; 7 × 46 mg/kg ip): 33%
- Tumor growth in the Dunning tumor (Dunning tumor; listed as D24851): stoppage of tumor growth and in some animals even tumor regression
- Tumor growth in the Dunning tumor (Dunning tumor; listed as D-24851): Stoppage of tumor growth, in some animals even tumor regression
- DNA fragmentation (DNA): no DNA fragmentation
- Blood parameters in the hematopoiesis test (Hematopoiesis test): none of the blood parameters investigated were modified; also recorded: none of the blood parameters investigated were altered
- LD50 1 × per os [5]: >1000 mg/kg
- Tox. i.p. [5]: ≈1000 i.p. mg/kg
- LD50 (in vivo; LD50 1 × per os): 1000 mg/kg
- LD50 (in vivo; ip, LD50 1 × ip): > 1000 mg/kg

Compound: O=C(Nc1ccncc1)C(=O)c1cn(Cc2ccc(F)cc2)c2ccccc12 [Example 1, N-(Pyridin-4-yl)-[1-(4-fluorobenzyl)indol-3-yl]glyoxylamide]
- EC50 (KB cell line): 0.02 µg/mL (≈ 0.0536 µM)
- XTT EC50 KB (KB cell line; listed as D-24241): KB ≈ 0.02 μg/ml
- XTT EC50 L1210 (L1210 cell line; listed as 1 (D 24241)): 0.170 µg/mL
- XTT EC50 L1210 (L1210 cell line; listed as D 24241): ≈0.17 μg/ml
- XTT EC50 L1210 (L1210 cell line; listed as D-24241): L1210 ≈ 0.07 μg/ml
- EC50 (LNCAP cell line): > 31.6 µg/mL
- XTT EC50 LNCaP (LNCAP cell line; listed as D 24241): >31.6 µg/mL
- XTT EC50 LNCaP (LNCAP cell line; listed as D-24241): LNCAP > 31.6 μg/ml
- EC50 (SK-OV-3 cell line): 0.17 µg/mL (≈ 0.455 µM)
- XTT EC50 SK-OV-3 (SK-OV-3 cell line; SK-OV-3 tumor cells, listed as D-24241): SKOV3 ≈ 0.17 μg/ml
- Hollow fiber intraperitoneal % INH (KB [1]; 4 × 15.8 mg/kg ip): 46%
- Hollow fiber subcutaneous % INH (KB [1]; 4 × 15.8 mg/kg ip): 81%
- Hollow fiber intraperitoneal % INH (L1210 [2]; 4 × 15.8 mg/kg ip): 43%
- Hollow fiber subcutaneous % INH (L1210 [2]; 4 × 15.8 mg/kg ip): 68%
- Hollow fiber intraperitoneal % INH (MCF-7; 4 × 15.8 mg/kg ip): no action
- Hollow fiber subcutaneous % INH (MCF-7; 4 × 15.8 mg/kg ip): 33%
- % ILS L1210 (L1210 [3]; 19 × 50 mg/kg per os, listed as D-24241, 50 mg/kg): 50% ILS
- ILS at 464 mg/kg (L1210 [3]; Mus musculus, L1210, po, 1 × 464 mg/kg per os): 44%
- ILS at 50 mg/kg (L1210 [3]; Mus musculus, L1210, po, 19 × 50 mg/kg per os): 50%
- Antitumor action on L 1210 (mouse) (L1210 [3]): strong dose-dependent antitumor action
- % WHI (KB [4]; 2 × 46.4 mg/kg ip): 22%
- % WHI (KB [4]; 2 × 215 mg/kg po): 47%
- Antitumor action in the KB test on the nude mouse (KB [4]): antitumor action
- Tox. i.p. [5]: ≈158 i.p. mg/kg
- LD50 (in vivo; LD50 1 × per os): > 1000 mg/kg
- LD50 (in vivo; ip, LD50 1 × ip): ~158 mg/kg

Compound: CC(=O)O[C@H]1C(=O)[C@@]2(C)[C@H]([C@H](OC(=O)c3ccccc3)[C@]3(O)C[C@H](OC(=O)[C@H](O)[C@@H](NC(=O)c4ccccc4)c4ccccc4)C(C)=C1C3(C)C)[C@]1(OC(C)=O)CO[C@@H]1C[C@@H]2O [Taxol, reference compound]
- EC50 (KB cell line): < 0.003 µg/mL
- EC50 (L1210 cell line): < 0.003 µg/mL
- EC50 (LNCAP cell line; LNCaP): < 0.003 µg/mL
- EC50 (SK-OV-3 cell line): < 0.003 µg/mL
- Tox. i.p. [5]: ≈158 i.p. mg/kg
- ILS at 14.7 mg/kg (L1210 [6]; 1 × 14.7 mg/kg i.v.): 22%
- ILS at 46.4 mg/kg (L1210 [6]; 1 × 46.4 mg/kg i.v.): 61%
